{"source": "patent US20230355763A1", "about": "“NANOPARTICLE VACCINES AND USES THEREOF FOR PROPHYLAXIS AND TREATMENT OF ATHEROSCLEROSIS USING PEPTIDE 210 AS AN ANTIGEN” (CEDARS-SINAI MEDICAL CENTER, priority 2022, published 2023)", "key": {"HLA-A*02:01": {"molecular_target": "T1, HLA-A*02:01 (Homo sapiens, UniProt P04439, D140Y/D185E/D98H/E176V/E277Q/G131W/G231S/I119V/I121R/I166T/I218V/L300P/L318F/N151K/N90K/P208A/P217A/Q86G/Q94H/R138H/R169H/T345S)", "T1 construct": "purchased ProImmune (contracted REVEAL assay service)", "experiment": "REVEAL binding assay of 9-mer P210 peptides", "settings": "for binding to HLA-A*02:01 (REVEAL binding score), in words: tested by ProImmune", "protocol": "The human Class-I HLA that occurs with the highest frequency in North America is HLA-A*02:01; and P210 epitope binding to HLA-A*02:01 was tested by ProImmune using the REVEAL assay. The REVEAL assay used 9-mer sequential peptides of P210 to assess binding to HLA-A*02:01 (Table 2): a plurality of 9-amino acid fragments, each identical to residues 1-9, 2-10, 3-11, 4-12, 5-13, 6-14, 7-15, 8-16, 9-17, 10-18, 11-19, or 12-20 of P210. […] ApOBKTTKQSFDL (SEQ ID NO:2) pentamer was able to detect a small but significant population of P210-specific CD8+ T cells in PBMCs from healthy HLA-A*02:01(+) volunteers (FIG. 7B-7E).\n(§1) Proimmune was contracted to screen for potential binding epitopes in P210 to HLA-A*02:01. […] For pentamer staining, commercially available HLA-A*02:01 typed cryo-preserved PBMCs (Immunospot) were thawed, rinsed in anti-aggregation solution (Immunospot) and divided into 2×10^6 cell aliquots. ApOBKTTKQSFDL (SEQ ID NO:2) pentamer staining was performed according to manufacturer's instruction, with the HLA-A*02:01 Negative Pentamer (ProImmune) as negative control. Each sample stained for ApOBKTTKQSFDL (SEQ ID NO:2) pentamer had its corresponding negative control stain. Cells were washed and then stained for CD8 (LT8) andddCD19 (HIB19). Cells were again washed after staining and resuspended in 1% paraformaldehyde in 1% BSA/0.1% sodium azide and analyzed. ApOBKTTKQSFDL (SEQ ID NO:2) pentamer positive cells for each sample were determined based on the corresponding Negative Pentamer."}, "human PBMCs [1]": {"tested_on": "human PBMCs", "experiment": "Activation Induced Marker (AIM) assay in human PBMC", "assay_type": "cell-based", "protocol": "Cryo-preserved PBMCs were thawed, rinsed in anti-aggregation solution (Immunospot), and seeded in culture plates at a density of 3×10^6 cells per ml of RPMI 1640 medium supplemented with 10% heat-inactivated pooled human serum and 1× antibiotic/antimycotic. After resting for 4 hours, cells were preincubated with 0.5 mg/ml anti-CD40 antibody for 15 minutes then stimulated with 20 μg/ml P210 peptide, 0.5× T cell stimulation cocktail containing PMA and ionomycin (Thermo Fisher), or CMV (pp65) Peptide Pool (StemCell Tech) as a non-relevant antigen control, whereas cells without treatment served as non-stimulated control. Cells were harvested 16 hours after seeding, stained for viability (LIVE/DEAD Fixable Aqua Dead Stain Kit, Thermo Fisher), and subjected to cell surface staining for flow cytometry using the following antibodies: CD4, CD8, CD25, CD69, OX40 (CD134), CD137 (4-1 BB) and CD154 (CD40L). Isotypes were used as staining control and eFluor506 labelled CD14, CD16 and CD19 antibodies were used as dump staining to exclude B cells, dendritic cells, macrophages, granulocytes, eosinophil cells and neutrophil cells. The results are expressed as fold change (ratio between the signal in the antigen stimulated condition and the signal in the unstimulated condition) for each subject, consistent with the reported AIM assay."}, "human PBMCs [2]": {"tested_on": "human PBMCs", "experiment": "Peptide stimulation of human PBMC (T effector / effector memory, Response Index)", "assay_type": "cell-based", "settings": "20 μg/ml P210, 72 h; ACS PBMCs compared to controls", "protocol": "Cryo-preserved PBMCs were thawed, rinsed and cultured as in AIM assay but without resting. Cells were stimulated with 20 μg/ml P210 peptide or 0.5× T cell stimulation cocktail containing phorbol 12-myristate 13-acetate (PMA) and ionomycin (Thermo Fisher) with non-treated cells serving as negative control. Culture medium was added at ⅓ of the starting volume 48 hours later to replenish the nutrients in the medium. Cells were harvested 72 hours after seeding, stained for viability (LIVE/DEAD Fixable Aqua Dead Stain Kit, ThermoFisher), and subjected to cell surface staining for flow cytometry using the following antibodies: CD3, CD4, CD8, CD45RA, CD45RO, CD62L, and CD197 (CCR7). Isotypes were used as staining control. CD4^+ or CD8^+ T Effector cells were gated on CD45RO^+CD62L^−CD197^−. T Effector Memory cells were CD45RO^+CD45RA^−CD62L^−CD197^−.\nResults were Tabulated as Response Index Using the Following Calculation:\n(% peptide stimulation−% no stimulation)/(% cocktail stimulation)×100.\nThe results are expressed as Response Index to account for inherent variations introduced by culturing cells in vitro over time, controlled for by assessing response relative to baseline cell phenotype (% no stimulation) and maximal stimulation (% cocktail stimulation) for each subject PBMC. Each data point represents one subject."}, "[3]": {"tested_on": "PBMCs from HLA-A*02:01(+) volunteers", "experiment": "ApoB KTTKQSFDL pentamer(+) CD8+ T cells in human PBMCs cultured with P210", "assay_type": "cell-based", "settings": "PBMCs cultured with 20 μg/ml P210 for 5 days", "protocol": "as §1"}, "A2Kb Tg ApoE-/- mice": {"tested_on": "A2Kb Tg ApoE-/- mice", "experiment": "Functional expression of A2Kb transgene (A2V7 immunization)", "assay_type": "in vivo, mouse", "settings": "male mice, 20 μg/100 μl s.c. in IFA; compared to IFA-injected mice, P<0.05", "protocol": "Male A2Kb Tg ApoE^−/− mice were immunized with the HLA-A*02:01-restricted peptide A2V7 from human hepatitis C virus (HCV NS5a 1987-1995, VLSDFKTWL (SEQ ID NO:34); ProImmune) emulsified in incomplete Freund's adjuvant (IFA; MP Biomedicals) at 9 and 10 weeks of age by subcutaneous injection at a dose of 20 μg/100 μl. Mice immunized with 100 μl IFA alone served as control. Mice were euthanized at 11 weeks of age. HLA-A*02:01 restricted antigen specific immune response was evaluated by flow cytometric analysis of splenocytes stained with CD19 (6D5), CD8a (KT15), and PE-conjugated HLA-A*02:01/A2V7-pentamer (ProImmune)."}, "[4]": {"settings": "20 μg/ml P210, 16 h, ACS patients compared to control subjects"}}}
{"sequence": "KTTKQSFDL (listed as Homo sapiens) [Peptide 1]", "values": [{"measurement": "binding to HLA-A*02:01 (REVEAL binding score)", "setting": "HLA-A*02:01; sequential 9-mer P210 peptides", "value": "KTTKQSFDL*"}, {"measurement": "binding to HLA-A*02:01 (REVEAL binding score), in words", "setting": "HLA-A*02:01; listed as First 9-mer sequence in P210", "value": "high binding score"}, {"measurement": "binding to HLA-A*02:01 (REVEAL binding score), in words", "setting": "HLA-A*02:01; listed as first 9-mer", "value": "scored well, comparable to the positive control"}]}
{"sequence": "KTTKQSFDLSVKAQYKKNKH (listed as Homo sapiens) [Peptide P210, ApoB-100 derived peptide P210 (ApoB-100 3136-3155)]", "values": [{"measurement": "CD8+CD69+CD134+ T cells after P210 stimulation", "setting": "human PBMCs [1]; [4]", "value": "no such increase was observed"}, {"measurement": "mean increase in CD4+CD69+CD134+ T cells after P210 stimulation", "setting": "human PBMCs [1]; [4]", "value": 1.5, "unit": "fold"}, {"measurement": "markers for other AIM(+) cells (CD25+CD134+, CD69+CD154+, CD134+CD137+)", "setting": "human PBMCs [1]; after P210 stimulation, ACS vs controls", "value": "not different compared to Controls"}, {"measurement": "CD4+ T effector cell response to P210", "setting": "human PBMCs [2]", "value": "not significantly different"}, {"measurement": "CD8+ T effector memory response to P210", "setting": "human PBMCs [2]", "value": "significant increase"}, {"measurement": "CD8+ T effector response to P210", "setting": "human PBMCs [2]", "value": "significant increase"}, {"measurement": "tested samples with an increase of pentamer specific CD8+ T cells", "setting": "[3]", "value": "5 out of 8"}]}
{"sequence": "VLSDFKTWL [Peptide A2V7, HLA-A*02:01-restricted peptide from human hepatitis C virus (HCV NS5a 1987-1995)]", "values": [{"measurement": "A2V7-pentamer+ CD8+ T cells in the spleen", "setting": "A2Kb Tg ApoE-/- mice", "value": "significantly increased"}]}
